Source: PMC7719179, “Small molecule inhibition of Dynamin-dependent endocytosis targets multiple niche signals and impairs leukemia stem cells” (Nature Communications, 2020)
Where “and” joins values, the source holds several entries; their conditions need not be identical. Equal entries are not always repeated.

Legend:
in vitro = conditions: mouse, Relative % viable cells
Protocol: Pre-leukemic and leukemic thymocytes were purified by flow cytometry and co-cultured on GFP-positive OP9 and OP9-DL1 stromal cell lines, as described previously. Thymocytes were co-cultured in reconstituted alpha-MEM medium (#12318, Gibco, Grand Island NY, USA) supplemented with 20% FCS (#12318), HEPES 10 mM (#15630-080), sodium pyruvate 1 mM (#11360-070), β-mercaptoethanol 55 μM (#21985-023), Glutamax 2 mM (#15750-060), 1% Penicillin/Streptomycin (#15140-122), 5 ng/mL rmFLT-3 ligand (#250-31 L, Pepro Tech), 5 ng/mL rmIL-7 (#217-17, Pepro Tech) and 25 ng/mL rmSCF (#250-03, Pepro Tech). After 48 h of co-culture, thymocytes were counted and analysed by FACS. […]
viability of wild-type (WT), Lmo2 Tg, Lmo2Tg;STAT5-CA Tg and Lmo2Tg;N1-ICD Tg DN3a thymocytes […]
normalized to cells treated with vehicle (%DMSO). Mean ± SEM of n=4 biological replicates. b, […]
thymocytes from 6-week old wild-type (WT), Lmo2 Tg, Lmo2Tg;STAT5-CATg and Lmo2Tg ;N1-ICD Tg mice. Mean ± SD of n=4 biological replicates are shown. 2-way ANOVA with Tukey’s correction test; […]
(1 picture or pasted object on this page, not shown here)
*P<0.05, *** P<0.001 compared to WT; #P<0.05, ##P<0.01, ###P<0.001 compared to L mo2Tg. c, Levels of pStat5 (left) after stimulation with IL-7 , as well as Hes1 expression (right) after co-culture on OP9- […]
(0.2 µM), Ruxolitinib (0.2 µM) and DAPT (0.1 µM). Unstimulated cells were used as negative controls (dashed line). Student’s t -test, ** P<0.01, *** P<0.001 compared to unstimulated cells. MFI ± SEM, 1-way ANOVA with Tukey’s correction test; **P<0.01, *** P<0.001 compared to vehicle. d, Clonogenic assay of normal murine hematopoietic stem and progenitor cells (HSPCs) cultured in the presence […]
± SD, Student’s t -test ( n=4) **P<0.01 compared to vehicle. e, Relative viability of wild-type (WT), […]
2 (0.2 µM), Ruxolitinib (0.2 µM) and DAPT (0.1 µM) for 48 hours. Viability was normalized to cells treated with vehicle (%DMSO, which was reported as 100). Mean ± SEM, 2-way ANOVA with Tukey’s correction test, **P<0.01, *** P<0.001 compared to vehicle.

[1] = test system: pSTAT5 and HES1 in ETP12 and ALL8 patient-derived cells; test: pSTAT5 and HES1 in ETP12 and ALL8 cells harvested from treated recipients; assay type: in vivo, human
Protocol: Phosphoflow analysis was performed as previously described. Briefly, 2 × 10^6 cells stained for surface markers were subsequently resuspended into PBS 1× + 4% v/v paraformaldehyde and incubated for 10 min at 4 °C for fixation. Fixed cells were washed twice using PBS 1×, then resuspended in pre-chilled at −20 °C Perm Buffer III (BD Pharmingen) and incubated 30 min at 4 °C for permeabilization. Cells were washed twice using PBS 1× and incubated overnight at 4 °C in PBS 1× + 2% v/v fetal calf serum (FCS) with Cell Signalling purified antibodies (Genesearch Pty Ltd, Arundel QLD, Australia) against pSTAT5 (Tyr694; #9359), phospho-p38 MAPK (Thr180/Tyr182; #4511), phospho-p44/42 (Erk1/2; #9102), phospho-S6 (Ser235/236; #4856) and phospho-Akt (Ser473; #9271) or isotype control. For intracellular HES1 detection, cells stained for surface markers were subsequently fixed and permeabilized using the BD Cytofix/Cytoperm^TM Kit and incubated overnight at 4 °C in PBS 1× + 2% v/v FCS with a purified antibody against HES1 (D6PU; #11988, Cell Signalling) or isotype control. After staining with primary antibodies for phosphoflow or intracellular detection, cells were incubated in permeabilization buffer with donkey Alexa Fluor 488-conjugated anti-rabbit secondary antibody (A-21206, lot #1910751, Molecular Probes, Invitrogen) or goat Alexa Fluor 546-conjugated anti-rabbit secondary antibody (A-11035, lot #1904467, Molecular Probes, Invitrogen) for 1 h on ice, and washed twice in PBS 1×. Fluorescence-activated cell sorting (FACS) analysis was performed using LSRII and LSR Fortessa cytometers, following the gating strategies described in Supplementary Fig. 11. Cell sorting was performed with a FACSAria or BD Influx.
Patient-derived xenograft models were established as previously described[97],[98]. […] For transplantation assays, 10^6 splenocytes harvested from successfully engrafted primary human ETP-ALL or T-ALL xenografts were injected into nonobese diabetic/severe combined immunodeficient (NOD.Cg-Prkdc^scid, also termed NOD/SCID) or NOD/SCID/Il2rg^tm1wjl/SzJ (NSG) mice[99]. Moreover, 1.5 × 10^6 cells splenocytes harvested from successfully engrafted patient-derived AML xenografts were injected into nonobese diabetic/severe immunodeficient (NOD.Cg-Rag1^tm1MomIl2rg^tm1wjl/SzJ, also termed NRG) mice expressing human IL-3, human GM-CSF and human SCF from the SGM3 triple transgene (NRGS)[100]. Engraftment into recipients was monitored by FACS analysis of peripheral blood as previously described. […] The in vivo efficacy of Dynole 34-2 was assessed 24 h after the last injection by FACS analysis and immunohistochemistry as described in Supplementary Methods. […]

Row | Structure (SMILES) | viability at 48 h, 0.04 mM (in vitro) [%] | viability at 48 h, 0.2 mM (in vitro) [%] | HES1 (MFI) in human CD45+ cells ([1]; PDX ALL8) | pSTAT5 (MFI) in human CD45+ cells ([1]; PDX ALL8) | HES1 (MFI) in human CD45+ cells ([1]; PDX ETP12) | pSTAT5 (MFI) in human CD45+ cells ([1]; PDX ETP12)
1 | N#CC[C@H](C1CCCC1)n1cc(-c2ncnc3[nH]ccc23)cn1 [Ruxolitinib] | 83.2 | 39.6 |  |  |  | 
2 | CCCCCCCCNC(=O)C(C#N)=Cc1cn(CCCN(C)C)c2ccccc12 [Dynole 34-2, 2-Cyano-N-octyl-3-(1-(3-dimethylaminopropyl)-1H-indol-3-yl)-acrylamide] |  |  | 1836 MFI and 2160 MFI and 2094 MFI | 2379 MFI and 2645 MFI and 2581 MFI | 8443 MFI and 7622 MFI and 8597 MFI and 6696 MFI and 10495 MFI and 10443 MFI | 4191 MFI and 3709 MFI and 3790 MFI
